Measured values as given in ChEMBL document CHEMBL1134714, “Spirocyclic nonpeptide glycoprotein IIb-IIIa antagonists. Part 1: design of potent and specific 3,9-diazaspiro[5.5]undecanes” (Bioorg Med Chem Lett, 2001).

Experiments:
Homo sapiens = species: Homo sapiens; assay: Inhibition of aggregation of ADP-stimulated human platelets; assay type: functional
Integrin alpha-V/beta-3 = Integrin alpha-V/beta-3 (Homo sapiens, UniProt P05106+P06756); assay: Inhibitory concentration against alphaV-beta3 integrin; assay type: protein-complex assay
[1] = molecular target: Integrin alpha-IIb/beta-3 (Homo sapiens, UniProt P05106+P08514); assay: Inhibition of binding of fibrinogen to purified human GPIIb-IIIa in ELISA; assay type: protein-complex assay
[2] = Oral bioavailability of compound in Sprague Dawley rats; assay type: ADME, organism-based; details: rat, in vivo

Integrin alpha-IIb/beta-3, sequence (P05106 27-788 limits assumed): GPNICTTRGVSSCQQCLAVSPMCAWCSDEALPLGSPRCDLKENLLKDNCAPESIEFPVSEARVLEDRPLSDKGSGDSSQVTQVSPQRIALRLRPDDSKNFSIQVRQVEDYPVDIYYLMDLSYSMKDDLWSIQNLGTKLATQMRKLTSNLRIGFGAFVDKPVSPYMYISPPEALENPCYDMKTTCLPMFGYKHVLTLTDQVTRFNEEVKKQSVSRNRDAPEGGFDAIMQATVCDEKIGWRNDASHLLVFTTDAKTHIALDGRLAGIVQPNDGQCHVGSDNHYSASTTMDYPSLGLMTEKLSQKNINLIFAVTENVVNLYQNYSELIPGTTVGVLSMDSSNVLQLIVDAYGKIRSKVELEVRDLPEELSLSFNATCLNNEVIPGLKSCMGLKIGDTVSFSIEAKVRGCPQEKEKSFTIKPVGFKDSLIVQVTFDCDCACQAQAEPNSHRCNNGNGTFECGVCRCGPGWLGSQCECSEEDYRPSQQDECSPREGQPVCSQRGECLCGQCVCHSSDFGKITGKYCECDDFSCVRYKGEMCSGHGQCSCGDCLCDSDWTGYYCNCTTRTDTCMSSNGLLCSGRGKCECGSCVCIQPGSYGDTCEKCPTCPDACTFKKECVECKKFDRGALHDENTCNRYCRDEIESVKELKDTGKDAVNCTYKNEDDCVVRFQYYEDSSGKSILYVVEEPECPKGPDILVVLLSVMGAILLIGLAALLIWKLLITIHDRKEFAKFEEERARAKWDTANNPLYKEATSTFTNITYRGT
Integrin alpha-IIb/beta-3, sequence (P08514 32-887 limits assumed): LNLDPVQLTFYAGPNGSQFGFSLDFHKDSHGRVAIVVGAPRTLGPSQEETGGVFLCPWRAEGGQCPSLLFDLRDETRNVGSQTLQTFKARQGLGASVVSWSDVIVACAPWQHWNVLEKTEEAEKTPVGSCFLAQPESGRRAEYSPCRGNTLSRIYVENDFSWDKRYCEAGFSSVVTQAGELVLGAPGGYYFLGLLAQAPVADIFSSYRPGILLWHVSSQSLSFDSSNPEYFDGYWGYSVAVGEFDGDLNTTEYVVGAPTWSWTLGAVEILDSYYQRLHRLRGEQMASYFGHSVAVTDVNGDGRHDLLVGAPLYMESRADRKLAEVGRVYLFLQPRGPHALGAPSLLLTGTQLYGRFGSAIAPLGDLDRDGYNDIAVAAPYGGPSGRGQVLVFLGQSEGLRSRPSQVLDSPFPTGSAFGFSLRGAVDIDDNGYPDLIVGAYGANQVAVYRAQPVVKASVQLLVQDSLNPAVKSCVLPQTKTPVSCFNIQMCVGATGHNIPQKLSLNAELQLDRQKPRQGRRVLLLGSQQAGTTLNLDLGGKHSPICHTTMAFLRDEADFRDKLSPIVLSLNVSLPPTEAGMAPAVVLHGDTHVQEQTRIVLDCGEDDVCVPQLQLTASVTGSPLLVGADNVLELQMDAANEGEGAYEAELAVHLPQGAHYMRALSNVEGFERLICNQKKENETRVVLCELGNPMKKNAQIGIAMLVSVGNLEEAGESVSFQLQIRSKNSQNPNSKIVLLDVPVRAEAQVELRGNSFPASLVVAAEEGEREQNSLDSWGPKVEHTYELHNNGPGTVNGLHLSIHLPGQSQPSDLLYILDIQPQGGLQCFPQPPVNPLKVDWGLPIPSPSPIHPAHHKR
Integrin alpha-IIb/beta-3, sequence (P08514 891-1039 limits assumed): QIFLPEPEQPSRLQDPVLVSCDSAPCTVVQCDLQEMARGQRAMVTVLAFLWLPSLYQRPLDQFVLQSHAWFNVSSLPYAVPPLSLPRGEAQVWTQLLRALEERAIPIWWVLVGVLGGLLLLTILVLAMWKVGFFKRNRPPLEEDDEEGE
Integrin alpha-V/beta-3, sequence (P05106 27-788 limits assumed): as the sequence (P05106 27-788 limits assumed) above
Integrin alpha-V/beta-3, sequence (P06756 31-889 limits assumed): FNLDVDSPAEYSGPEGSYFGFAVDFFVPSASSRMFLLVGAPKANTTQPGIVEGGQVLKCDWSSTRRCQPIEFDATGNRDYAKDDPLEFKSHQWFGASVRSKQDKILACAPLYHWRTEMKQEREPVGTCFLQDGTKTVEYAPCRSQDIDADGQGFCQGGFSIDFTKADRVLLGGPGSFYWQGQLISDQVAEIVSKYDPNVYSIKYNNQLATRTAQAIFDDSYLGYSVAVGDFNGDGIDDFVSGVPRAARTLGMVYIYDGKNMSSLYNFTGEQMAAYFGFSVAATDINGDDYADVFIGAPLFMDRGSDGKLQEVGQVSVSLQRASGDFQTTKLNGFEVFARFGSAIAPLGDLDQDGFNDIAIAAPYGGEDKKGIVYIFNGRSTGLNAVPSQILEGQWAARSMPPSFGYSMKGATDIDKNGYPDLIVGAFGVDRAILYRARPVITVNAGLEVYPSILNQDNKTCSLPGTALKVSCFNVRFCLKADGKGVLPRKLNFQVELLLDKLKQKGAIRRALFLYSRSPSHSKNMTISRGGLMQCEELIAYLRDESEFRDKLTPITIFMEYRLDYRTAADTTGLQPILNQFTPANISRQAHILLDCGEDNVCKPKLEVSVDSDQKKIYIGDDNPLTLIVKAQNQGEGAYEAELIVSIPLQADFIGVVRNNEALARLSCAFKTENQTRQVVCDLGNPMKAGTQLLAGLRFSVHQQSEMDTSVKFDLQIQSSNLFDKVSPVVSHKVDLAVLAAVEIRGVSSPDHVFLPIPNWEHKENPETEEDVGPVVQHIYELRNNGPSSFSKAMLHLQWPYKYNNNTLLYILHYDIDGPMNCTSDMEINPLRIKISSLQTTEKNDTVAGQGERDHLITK
Integrin alpha-V/beta-3, sequence (P06756 891-1048 limits assumed): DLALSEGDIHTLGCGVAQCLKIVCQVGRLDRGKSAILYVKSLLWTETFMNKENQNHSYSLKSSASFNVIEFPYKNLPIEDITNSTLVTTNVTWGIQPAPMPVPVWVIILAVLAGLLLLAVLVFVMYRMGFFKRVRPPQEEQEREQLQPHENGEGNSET

IC50 (Homo sapiens) [µM]	IC50 (Integrin alpha-V/beta-3) [µM]	IC50 [1] [µM]	bioavailability [2] [%]	SMILES
0.039	> 100	–	–	Cc1noc(C)c1S(=O)(=O)N[C@@H](CNC(=O)N1CCC2(CC1)CCN(c1ccncc1)CC2)C(=O)O
0.078	> 100	–	–	Cc1ccc(S(=O)(=O)N[C@@H](CCC(=O)N2CCC3(CC2)CCN(c2ccncc2)CC3)C(=O)O)cc1
5.08	> 100	–	–	O=C(O)CCCC(=O)N1CCC2(CC1)CCN(c1ccncc1)CC2
2.65	> 100	0.21	–	O=C(O)COC1CCN(C(=O)N2CCC3(CC2)CCN(c2ccncc2)CC3)CC1
0.768	> 100	0.023	–	CCCCS(=O)(=O)N[C@@H](CCC(=O)N1CCC2(CC1)CCN(c1ccncc1)CC2)C(=O)O
0.021	> 100	–	7.3	Cc1noc(C)c1S(=O)(=O)N[C@@H](CCC(=O)N1CCC2(CC1)CCN(c1ccncc1)CC2)C(=O)O
10.3	> 100	–	–	N=C(N)c1ccc(C(=O)N2CCC3(CCN(C(=O)CCCC(=O)O)CC3)CC2)cc1
4.54	> 100	–	–	O=C(O)CCCCC(=O)N1CCC2(CC1)CCN(c1ccncc1)CC2
0.722	> 100	0.004	–	CCCCOC(=O)N[C@@H](CCC(=O)N1CCC2(CC1)CCN(c1ccncc1)CC2)C(=O)O
9.3	> 100	9.7	–	N=C(N)c1ccc(C(=O)N2CCC3(CCN(C(=O)CC(=O)O)CC3)CC2)cc1
4.55	> 100	0.27	–	O=C(O)CCCCCC(=O)N1CCC2(CC1)CCN(c1ccncc1)CC2
13.8	> 100	–	–	N=C(N)c1ccc(C(=O)N2CCC3(CCN(C(=O)CCC(=O)O)CC3)CC2)cc1
1.17	> 100	0.043	–	O=C(O)CC(=O)N1CCC(C(=O)N2CCC3(CC2)CCN(c2ccncc2)CC3)CC1
1.15	> 100	0.16	–	N=C(N)c1ccc(N2CCC3(CCN(CCC(=O)O)CC3)CC2)cc1
18.8	> 100	> 100	–	N=C(N)c1ccc(C(=O)N2CCC3(CCN(C(=O)CCCCC(=O)O)CC3)CC2)cc1
17.8	> 100	–	–	O=C(O)CCCCCCC(=O)N1CCC2(CC1)CCN(c1ccncc1)CC2
4.58	> 100	–	–	O=C(N[C@@H](CCC(=O)N1CCC2(CC1)CCN(c1ccncc1)CC2)C(=O)O)OCc1ccccc1
